Test results from article doi:10.1101/2023.07.11.548539v1, “A side-by-side comparison of peptide-delivered antisense antibiotics employing different nucleotide mimics” (bioRxiv, 2023).
Oligonucleotides are written 5' to 3', each unit as a sugar letter and its base; * is a phosphorothioate linkage, no mark a phosphodiester; rarer units and linkages stand in square brackets, end groups in braces. Plain capitals give the bases only. d = 2'-deoxy (DNA)

How the values were obtained:
[1] = test system: Cy5 5'-labelled RNA, nucleotides -20 to +20 of acpP (target mRNA); assay: Microscale thermophoresis (MST) binding affinity; set-up: species or system Salmonella enterica; key to Binding affinity (in vitro): -: Effect strength is represented by additional (+) signs.; Effect strength is represented by additional (+) signs.; ++: Effect strength is represented by additional (+) signs.; +++: Effect strength is represented by additional (+) signs; settings: unconjugated ASO; for Binding affinity (in vitro): summary grade
Protocol: For each binding experiment, Cy5 5’-labelled RNA (as described above) was diluted to 10 nM in Buffer A (50 mM Tris-HCl pH 7.6, 250 mM KCl, 5 mM MgCl2, 1 mM DTT, 5% glycerol supplemented with 0.05% Tween 20). A series of 16 tubes with different ASO dilutions (500 nM to 0.015 nM) were prepared in Buffer A. For measurements, each ASO dilution was mixed with one volume of labeled RNA, which led to a final concentration of 5.0 nM labeled RNA and 250 nM to 0.007 nM of ASOs. The reaction was mixed by pipetting and incubated for 30 min at RT in the dark. Capillary forces were used to load the samples into Monolith NT.115 Premium Capillaries; measurements were performed using a Monolith Pico instrument (NanoTemper Technologies Gmbh, Munich, Germany) at an ambient temperature of 25 °C. Instrument parameters were adjusted to 5% LED power, medium MST power, and MST on-time of 2.5 s. An initial fluorescence scan was performed across the capillaries to determine sample quality, which was followed by 16 thermophoresis measurements. […] Data of two independent measurements were analyzed for the ΔFnorm value determined by the MO Affinity Analysis software (NanoTemper Technologies Gmbh, Munich, Germany). The fitting for EC50 values was done using the Hill equation within the MO Affinity Analysis software. Data are presented as the mean EC50 values of two independent experiments.

Salmonella [2] = assay: Salmonella growth assay; format: cell-based, Salmonella enterica serovar Typhimurium strain SL1344; set-up: key to Antibacterial activity: -: Effect strength is represented by additional (+) signs.; Effect strength is represented by additional (+) signs.; ++: Effect strength is represented by additional (+) signs.; +++: Effect strength is represented by additional (+) signs; settings: for Effect on Salmonella growth (in words): KFF-ASO conjugates or unconjugated peptide, 24 h growth kinetics, OD600, MHB, 37 °C, up to 10 µM; for Antibacterial activity: summary grade, ASO conjugated to the carrier peptide
Protocol: An overnight bacterial cell culture was diluted 1:100 in fresh MHB and grown to OD600 0.5. The obtained culture was diluted to approximately 10^5 cfu/ml in non-cation-adjusted MHB. Subsequently, 190 µl bacterial solution was dispensed into a 96-well plate (Thermo Fisher Scientific) along with 10 µl of a 200 µM solution of the ASOs. Growth was monitored by measuring the OD at 600 nm every 20 min in a Synergy H1 plate reader (Biotek) with continuous double-orbital shaking (237 cpm) at 37 °C for 24 h.

Salmonella [3] = assay: RNA-seq, global transcriptome (PCA); format: cell-based, Salmonella enterica serovar Typhimurium strain SL1344; settings: 5 µM KFF-ASO conjugate or peptide, 15 min; two independent RNA-seq experiments
Protocol: RNA isolation was performed using previously published protocols ([30],[31]). Bacterial overnight cultures were diluted 1:100 in fresh MHB and grown to OD600 0.5. The cultures were diluted to approximately 10^6 cfu/ml in non-cation-adjusted MHB. Afterwards, an aliquot of the bacterial solution was transferred into 5 ml low-binding tubes (LABsolute) containing the ASOs solution (adjusted such that the final concentration was 5 μM for all tested compounds). As a negative control, cells were treated with the respective volume of sterile nuclease-free water, which was used as solvent for the ASOs. After incubating the samples for 15 min at 37 °C, RNAprotect Bacteria (Qiagen) was added according to the manufacturer’s instructions. Following a 10-min incubation, cells were pelleted at 4 °C and 21,100 × g for 20 min. The supernatant was discarded and pellets were either directly used or stored at –20°C (<1 day) for subsequent bacterial RNA isolation.
Total RNA was purified from bacterial pellets using the miRNeasy Mini kit (Qiagen) according to protocol #3 described in ([30]). Briefly, cells were resuspended in 0.5 mg/ml lysozyme (Roth) in TE buffer (pH 8.0) and incubated for 5 min. Afterwards, RLT buffer supplemented with β-mercaptoethanol, and ethanol were added according to the manufacturer’s instructions. After sample loading, column wash-steps were performed according to the manual. RNA concentration was measured with a NanoDrop spectrophotometer.
For transcriptomic analyses, RNA samples were processed and subjected to RNA-seq at Core Unit SysMed (University of Würzburg, Germany). Sequencing was run using a previously published protocol ([31]). […] Sequencing of pooled libraries, spiked with 5% PhiX control library, was performed at 10 million reads/sample in single-end mode with 75 nt read length on the NextSeq 500 platform (Illumina) using High output sequencing kits. […]
RNA-seq data analysis was performed similarly to our previous analysis of PNA activity in S. enterica ([30]). Briefly, adapters and low-quality bases (Phred quality score <10) of raw reads were trimmed using BBduk. Then the RNA-seq reads were mapped to the S. enterica serovar Typhimurium reference genome and the three plasmids pSLT SL1344, pCol1B9 SL1344, and pRSF1010 SL1344 ([37]) using BBMap (v38.18) and genomic features were assigned using the featureCounts command of the Subread (2.0.1) package ([38]). […]
Downstream RNA-seq analysis was performed using packages from the R/Bioconductor project. Raw read counts of all conditions were imported into edgeR (v3.34.1) ([40]) and analysed for differential expression. To filter low-count reads, features with less than 1.38 counts per million (CPM) in at least 5 libraries were ignored for further analysis. […]

Substance	Binding affinity (in vitro) [1]	Binding affinity (EC50, nM) ([1]; MST, 5.0 nM labelled RNA, ASO 250 nM to 0.007 nM, 30 min RT, 25 °C, Hill fit, mean ± SD of two independent experiments)	Effect on Salmonella growth (in words) (Salmonella [2])	Antibacterial activity (Salmonella [2])	PCA cluster of the transcriptomic response (Salmonella [3])
DNA-PTO: 10mer phosphorothioate-modified DNA antisense oligomer, sequence CTCATACTCT, targeting acpP (antisense dC*dT*dC*dA*dT*dA*dC*dT*dC*dT)	-	Could not be determined	slight growth retardation was observed at 5 µM and 10 µM	-	
LNA: 10mer 2'-4'-locked RNA antisense oligomer, sequence CTCATACTCT, targeting acpP (all LNA, backbone and methylation of C not given here)	+++		slight growth retardation was observed at 5 µM and 10 µM	-	
PMO: 10mer phosphorodiamidate morpholino antisense oligomer, sequence CTCATACTCT, targeting acpP (all phosphorodiamidate morpholino (PMO))	++			+	cluster 3
PNA: 10mer peptide nucleic acid antisense oligomer, sequence CTCATACTCT, targeting acpP (all peptide nucleic acid (PNA))	+++			++	cluster 1
RNA-F: 10mer 2'-fluorinated RNA antisense oligomer, sequence CTCATACTCT, targeting acpP (all 2'-fluoro, backbone and T or U not given here)	+		slight growth retardation was observed at 5 µM and 10 µM	-	
RNA-MOE: 10mer 2'-methoxyethylated RNA antisense oligomer, sequence CTCATACTCT, targeting acpP (all 2'-MOE, backbone and methylation of C not given here)	+++		slight growth retardation was observed at 5 µM and 10 µM	-	cluster 1
RNA-OMe: 10mer 2'-methylated RNA antisense oligomer, sequence CTCATACTCT, targeting acpP (all 2'-O-methyl, backbone and T or U not given here)	++		no activity at all	-	cluster 1
